Patent US20080009025A1, “PROTEIN KINASE REGULATION” (priority 1999, published 2008)
Where a SMILES comes first, the peptide text is derived from it.

What was measured:
Test in all cases: Surface plasmon resonance binding of PDK1 to PIF / immobilised PIFtide
PDK1 [1] = molecular target: T1, PDK1 (Homo sapiens, UniProt O15530, K115A); settings: immobilised biotinylated peptide; PDK1 K115A
T1 construct: Full length PDK1 (residues 1-556); made in house; host or cells: 293 cells
T1 sequence (O15530 1-556 K115A): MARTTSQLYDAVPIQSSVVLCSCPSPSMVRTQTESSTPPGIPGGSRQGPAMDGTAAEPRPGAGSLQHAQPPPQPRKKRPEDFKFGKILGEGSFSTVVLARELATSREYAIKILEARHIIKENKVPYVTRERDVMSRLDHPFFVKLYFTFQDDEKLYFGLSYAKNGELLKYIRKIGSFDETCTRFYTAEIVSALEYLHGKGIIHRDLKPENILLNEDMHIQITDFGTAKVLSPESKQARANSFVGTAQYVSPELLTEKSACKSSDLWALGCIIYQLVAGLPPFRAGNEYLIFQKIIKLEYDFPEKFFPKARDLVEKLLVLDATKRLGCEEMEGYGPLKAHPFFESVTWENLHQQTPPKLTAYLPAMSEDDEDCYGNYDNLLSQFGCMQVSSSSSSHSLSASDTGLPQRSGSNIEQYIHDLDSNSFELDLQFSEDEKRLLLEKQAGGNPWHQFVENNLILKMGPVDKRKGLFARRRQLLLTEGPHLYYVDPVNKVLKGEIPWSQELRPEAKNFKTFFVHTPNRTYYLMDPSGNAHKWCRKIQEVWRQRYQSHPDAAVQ
From the text: (§1) It is preferred that the interaction can be detected using a surface plasmon resonance method, as described in Example 1 or 2 and in Balendran et al (1999), supra and GB9906245.7, supra. The interacting polypeptide may be immobilised on the test surface, for example it can be coupled through amino groups to a SensorChip CM5™, according to the manufacturer's instructions, or a biotinylated polypeptide can be bound to an avidin coated SensorChip SA. The protein kinase (at concentrations between, for example 0 and […], for example 2 μM) is then injected over the surface and steady state binding determined in each case. From these measurements a Kd can be determined. […] Alternatively, a Kd can be determined for a polypeptide in competition with the immobilised polypeptide. The protein kinase (for example at a concentration of 0.5 μM) is mixed with free polypeptide (for example, at concentrations between 0 and 3 μM) and the mixture injected over the immobilised polypeptides. The steady state binding is determined in each case, from which the Kd of the interaction can be determined using the […] relationship. Alternatively, the interaction may be expressed in terms of an observed response or relative observed responses, measured in terms of mass of protein bound to the surface, as described in Example 2. For example, the polypeptide may be immobilised by amino coupling to a SensorChip CM5 and each protein kinase (for example different mutated protein kinases, as discussed below) for example at a concentration of 1.0 μM, injected over the immobilised polypeptide. Alternatively, the polypeptide may be immobilised on a SA SensorChip and each protein kinase, for example at a concentration of 40 nM injected over the immobilised polypeptide. The steady state response for each protein kinase is determined, for example expressed in Response Units (RU). 1000 RU corresponds to 1 ng/mm^2 of protein bound to the surface. A response of less than 10 RU may indicate that no interaction has taken place. A response of at least 10 RU may indicate that the immobilised and injected molecules interact with each other.
(§2) FIG. 9. Effect of mutation of conserved residues in the PIF-binding pocket of PDK1 on the ability to interact with PIF. 293 cells were transiently transfected with DNA constructs expressing GST-PIF and either wild type Myc-PDK1 or the indicated mutants of PDK1. 36 h post transfection the cells were lysed and GST-PIF purified by affinity chromatography on glutathione-Sepharose beads. 2 μg of each protein was electrophoresed on a 10% SDS/polyacrylamide gel and either stained with Coomassie blue (A and E) or immunoblotted using an anti Myc antibody to detect Myc-PDK1 (B and F). To establish that the wild type PDK1 and mutant proteins were expressed at a similar level, 10 μg of total cell lysate was electrophoresed on a 10% SDS/polyacrylamide gel and immunoblotted using anti-Myc antibodies (C and G). Duplicates of each condition are shown. Similar results were obtained in 3 to 5 separate experiments. (D) Surface Plasmon Resonance measurements were carried out in a BiaCore instrument as described in the Methods to measure the interaction of wild type and mutant GST-PDK1 preparations with the 24 residue synthetic peptide whose sequence encompasses the PDK1 binding site on PIF termed PIFtide [24: Example 2]. […]
(§3) Binding was analysed directly by surface plasmon resonance in an upgraded Bia-Lite™ system. […]

PDK1 [2] = system: PDK1; parameters: species or system human
From the text: as §1, §2, §3

PDK1 [3] = molecular target: T2, PDK1 (Homo sapiens, UniProt O15530); settings: His-tagged PDK1
T2 construct: Full length PDK1 (residues 1-556); made in house; host or cells: 293 cells
T2 sequence (O15530 52-556): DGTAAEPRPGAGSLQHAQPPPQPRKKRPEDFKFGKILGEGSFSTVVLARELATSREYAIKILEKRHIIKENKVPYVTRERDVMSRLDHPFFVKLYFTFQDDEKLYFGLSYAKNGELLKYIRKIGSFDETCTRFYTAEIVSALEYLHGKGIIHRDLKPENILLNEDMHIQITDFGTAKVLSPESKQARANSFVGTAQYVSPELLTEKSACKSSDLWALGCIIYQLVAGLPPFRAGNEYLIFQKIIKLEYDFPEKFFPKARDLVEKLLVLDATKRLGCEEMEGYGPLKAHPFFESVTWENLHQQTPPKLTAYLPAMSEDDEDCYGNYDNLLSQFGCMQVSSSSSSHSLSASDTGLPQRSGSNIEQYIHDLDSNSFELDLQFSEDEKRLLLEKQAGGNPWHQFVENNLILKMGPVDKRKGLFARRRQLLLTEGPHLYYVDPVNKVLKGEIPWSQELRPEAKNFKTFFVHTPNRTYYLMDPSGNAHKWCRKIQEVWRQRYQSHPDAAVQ
From the text: as §1, §2, §3

Compound | interaction with K115A mutant of PDK1 (PDK1 [1]) | decreased affinity of PDK1[K115A], PDK1[I119A], PDK1[Q150A] and PDK1[L155A] for PIFtide (PDK1 [2]; PDK1 PIF pocket mutants vs wild type, unpublished data) | interaction with L155S, L155D and L155E mutants of PDK1 (PDK1 [2]; immobilised biotinylated peptide, PDK1 mutants L155S, L155D, L155E) | interaction with wild type GST-PDK1 (PDK1 [2]; immobilised biotinylated peptide, wild type GST-PDK1) | estimated equilibrium dissociation constant of the association between GST-PIF and His-tagged PDK1 (PDK1 [3])
CC[C@H](C)[C@H](NC(=O)[C@H](Cc1ccc(O)cc1)NC(=O)[C@H](CC(=O)O)NC(=O)[C@H](Cc1ccccc1)NC(=O)[C@H](CC(=O)O)NC(=O)[C@H](CCCNC(=N)N)NC(=O)[C@H](Cc1ccccc1)NC(=O)[C@H](CCSC)NC(=O)[C@H](CCC(=O)O)NC(=O)[C@H](CCC(N)=O)NC(=O)[C@H](CCC(=O)O)NC(=O)[C@H](CCC(=O)O)NC(=O)[C@H](CCC(=O)O)NC(=O)[C@H](CO)NC(=O)[C@H](CC(C)C)NC(=O)[C@@H](NC(=O)[C@H](CCCNC(=N)N)NC(=O)[C@@H]1CCCN1C(=O)[C@H](CCC(=O)O)NC(=O)[C@@H](N)CCCNC(=N)N)[C@@H](C)CC)C(=O)N[C@@H](C)C(=O)N[C@@H](CC(=O)O)C(=O)N[C@@H](Cc1c[nH]c2ccccc12)C(=O)N[C@@H](CS)C(=O)O [PIFtide] (H-REPRILSEEEQEMFRDFDYIADWC-OH; N-terminus and C-terminus assumed) | interacted weakly | ~10 fold | no detectable affinity | high affinity interaction | 
GST-PIF: glutathione S-transferase fused to the last 77 residues of PRK2 (PIF) |  |  |  |  | 600 nM
